# Measured values: patent US11555212B2, “Process for the production of sulfated phenolic compounds using modified Escerichia coli” (CysBio ApS, priority 2016, dated 2023)
# Assays:
# Assay in all cases: Percent conversion of substrates by E. coli expressing a sulfotransferase
# Assay type in all cases: cell-based
# [1] = tested on: SULT1C1 Gallus gallus domesticus; details: E. coli BL21(DE3)pLysS expressing SULT1C1 Gallus gallus domesticus; M9; pHCA 100 μM, resveratrol 95 μM or kaempferol 87 μM; overnight 37° C.
# Procedure: (§1) The concentration of p-courmaric acid (pHCA) and zosteric acid in the supernatant was quantified by high performance liquid chromatography (HPLC) and compared to chemical standards. HPLC was done on a Thermo setup using a HS-F5 column and mobile phases: 5 mM ammonium formate pH 4.0 (A) and acetonitrile (B) at 1.5 mL min-1, using a gradient elution starting at 5% B. From 0.5 min after injection to 7 min, the fraction of B increased linearly from 5% to 60%, and between 9.5 min and 9.6 the fraction of B decreased back to 5%, and remaining there until 12 min. pHCA and zosteric acid were quantified by measuring absorbance at 277 nm.
# (§2) Different sulfotransferases were examined for their substrate specificities against three substrates. We tested the sulfotransferases mentioned in example 1, as well as additional ones. The genes encoding these were cloned as described in example 1 using the primers shown in the table below from cDNA libraries of the respective organisms, except for the SULT1A1 from rat (Rattus norvegicus) codon-optimized for E. coli (described above). The resulting vectors were transformed into BL21(DE3)pLysS.
# (§3) The resulting strains were grown in M9 medium containing either 100 μM pHCA, 95 μM resveratrol or 87 μM kaempferol. The cultures were grown overnight at 37° C., 300 rpm. The following day the supernatants were isolated and examined by HPLC as described in example 1.
# SULT1A1 Equus caballus = details: E. coli BL21(DE3)pLysS expressing SULT1A1 Equus caballus; M9; pHCA 100 μM, resveratrol 95 μM or kaempferol 87 μM; overnight 37° C.
# Procedure: as §1, §2, §3
# [2] = tested on: SULT1E1 Gallus gallus domesticus; details: E. coli BL21(DE3)pLysS expressing SULT1E1 Gallus gallus domesticus; M9; pHCA 100 μM, resveratrol 95 μM or kaempferol 87 μM; overnight 37° C.
# Procedure: as §1, §2, §3
smiles,measurement,setting,value
"O=C(O)/C=C/c1ccc(O)cc1 [pHCA, p-coumaric acid]",Percent conversion of the substrate,[1],26%
same,Percent conversion of the substrate,SULT1A1 Equus caballus,21%
same,Percent conversion of the substrate,[2],17%
